The record followed here is ChEMBL document CHEMBL1154556, “Siamenol, a new carbazole alkaloid from Murraya siamensis” (J Nat Prod, 2000).

In test [1] the test system is Human immunodeficiency virus. As to the kind of experiment: Antiviral activity against HIV. The format is functional, organism-based.
Test [2] has as its system Human immunodeficiency virus. As to the kind of experiment: Antiviral activity against HIV assessed as protection against viral infection by XTT-tetrazolium method. The format is functional. In general terms: Tetrazolium assays rely on reduction of a dye to a coloured formazan, in cell work by metabolically active cells.

In brackets after ≈: the same amount, converted by molar mass. Activity calls are given as the source filed them. The calls are words filed in the database; no cut-off is given here.

On to `CC(C)=CCc1cc2c(cc1O)[nH]c1ccc(C)cc12` [SIAMENOL], for which the EC50 (usually the midpoint of the concentration-response curve) in test [1] (Human immunodeficiency virus 1) was 2.6 µg/mL (≈ 9.8 µM). Further, the Activity in test [2] came out at 50%.
Turning to `CC(C)=CCCC1(C)C=Cc2c(c(C)cc3c2[nH]c2ccccc23)O1` (stereo not given), the result in test [1] was inactive.
Turning to `CC(C)=CCC/C(C)=C/Cc1c(O)c(C)cc2c1[nH]c1ccccc12` [MAHANIMBILOL], in test [1] (Human immunodeficiency virus 1), the EC50 was found to be 8.6 µg/mL (≈ 25.8 µM) and half-maximal inhibition (IC50) was put at 23 µg/mL (≈ 69 µM).
